Measurements: patent US12060347B2 (BRISTOL-MYERS SQUIBB COMPANY, priority 2016, dated 2024)

Target: T1, human PAR4 (Homo sapiens, UniProt Q96RI0)
T1 construct: expressed in transfected cells; host or cells: HEK293 PAR4 Clone 1.2A (BMS Arctic ID 383940)
T1 sequence (Q96RI0 18-385): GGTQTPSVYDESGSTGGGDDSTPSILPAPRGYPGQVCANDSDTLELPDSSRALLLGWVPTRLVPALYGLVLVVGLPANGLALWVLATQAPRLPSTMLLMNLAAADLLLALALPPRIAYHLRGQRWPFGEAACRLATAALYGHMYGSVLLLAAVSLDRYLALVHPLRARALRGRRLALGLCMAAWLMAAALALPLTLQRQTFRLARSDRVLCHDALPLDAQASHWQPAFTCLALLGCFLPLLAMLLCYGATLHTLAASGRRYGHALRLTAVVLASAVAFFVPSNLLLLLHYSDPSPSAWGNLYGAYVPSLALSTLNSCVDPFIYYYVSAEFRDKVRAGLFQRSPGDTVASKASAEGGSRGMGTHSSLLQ
Assay: PAR4 FLIPR assay: antagonism of agonist-peptide-induced calcium mobilization in PAR4-expressing HEK293 cells
Type: cell-based
Conditions: H-Ala-Phe(4-F)-[…]NH2-induced intracellular calcium mobilization, 11-point curves

SMILES | IC50 [nM]
Cc1cc(-c2nc3c(s2)CCCC3)c2ncc(OC(F)F)nc2c1 [Example 178, 2-(2-(difluoromethoxy)-7-methylquinoxalin-5-yl)-4,5,6,7-tetrahydrobenzo[d]thiazole] | 13
COc1ccc(OC(=O)NCCOc2cc(C)c3nc(-c4cc(C)cc5nc(OC)cnc45)sc3n2)cc1 [Example 662, 4-methoxyphenyl (2-((2-(2-methoxy-7-methylquinoxalin-5-yl)-7-methylthiazolo[5,4-b]pyridin-5-yl)oxy)ethyl)carbamate] | 77
COc1cc(C)c2nc(-c3cc(Cl)cc4nc(OC)cnc34)sc2c1 [Example 837, 2-(7-chloro-2-methoxyquinoxalin-5-yl)-6-methoxy-4-methylbenzo[d]thiazole] | 17
COCc1cnc2c(-c3nc4c(C)cc(OCCNS(=O)(=O)c5ccc(F)cc5)cc4s3)cc(F)cc2n1 [Example 207, 4-fluoro-N-(2-((2-(7-fluoro-2-(methoxymethyl)quinoxalin-5-yl)-4-methylbenzo[d]thiazol-6-yl)oxy)ethyl)benzenesulfonamide] | 0.9
Cc1cc(-c2nc3c(s2)CCC3)c2ncc(OC(F)F)nc2c1 [Example 136, 2-(2-(difluoromethoxy)-7-methylquinoxalin-5-yl)-5,6-dihydro-4H-cyclopenta[d]thiazole] | 29
COc1cnc2c(-c3nc4cc(F)c(OC[C@@H](C)OC(=O)Nc5ccc(C(=O)NC[C@H](C)O)nc5)nc4s3)cc(C)cc2n1 [Example 748, (R)-1-((6-fluoro-2-(2-methoxy-7-methylquinoxalin-5-yl)thiazolo[5,4-b]pyridin-5-yl)oxy) propan-2-yl (6-(((S)-2-hydroxypropyl)carbamoyl)pyridin-3-yl)carbamate] | 2.9
COc1cnc2c(-c3nc4ccc(OCCOC(=O)Nc5cccc(C#N)c5)cc4s3)cc(C)cc2n1 [Example 118, 2-((2-(2-methoxy-7-methylquinoxalin-5-yl)benzo[d]thiazol-6-yl)oxy)ethyl (3-cyanophenyl)carbamate] | 2.2
Cc1cc(-c2nc3cccc(OCCOc4ccccc4)c3s2)c2ncc(OC(F)F)nc2c1 [Example 17, 2-(2-(difluoromethoxy)-7-methylquinoxalin-5-yl)-7-(2-phenoxyethoxy)benzo[d]thiazole] | 13
COc1cnc2c(-c3nc4cc(F)c(OC[C@@H](C)OC(=O)Nc5ccc(C(=O)N6CCOCC6)nc5)cc4s3)cc(C)cc2n1 [Example 435, (R)-1-((5-fluoro-2-(2-methoxy-7-methylquinoxalin-5-yl)benzo[d]thiazol-6-yl)oxy)propan-2-yl (6-(morpholine-4-carbonyl)pyridin-3-yl)carbamate] | 0.9
COC(=O)c1cc(NC(=O)OCCOc2cc3sc(-c4cc(C)cc5nc(OC)cnc45)nc3c(Cl)c2F)cn1C [Example 378, methyl 4-(((2-((4-chloro-5-fluoro-2-(2-methoxy-7-methylquinoxalin-5-yl)benzo[d]thiazol-6-yl)oxy)ethoxy)carbonyl)amino)-1-methyl-1H-pyrrole-2-carboxylate] | 8.7
COCc1cnc2c(-c3nc4c(F)c(F)c(OC)cc4s3)cc(C)cc2n1 [Example 267, 4,5-difluoro-6-methoxy-2-(2-(methoxymethyl)-7-methylquinoxalin-5-yl)benzo[d]thiazole] | 0.8
COc1cnc2c(-c3nc4c(C)cc(OC)nc4s3)cc(CO)cc2n1 [Example 223, (3-methoxy-8-(5-methoxy-7-methylthiazolo[5,4-b]pyridin-2-yl)quinoxalin-6-yl)methanol] | 10
COCc1cnc2c(-c3nc4ccc(OC)cc4s3)cc(C)cc2n1 [Example 253, 6-methoxy-2-(2-(methoxymethyl)-7-methylquinoxalin-5yl)benzo[d]thiazole] | 0.6
COc1cnc2c(-c3nc4cc(F)c(OCC(COCc5ccccc5)OC(=O)Nc5cccnc5)cc4s3)cc(C)cc2n1 (centres unmarked) [Example 380, 1-(benzyloxy)-3-((5-fluoro-2-(2-methoxy-7-methylquinoxalin-5-yl)benzo[d]thiazol-6-yl)oxy)propan-2-yl pyridin-3-ylcarbamate] | 2.3
COc1cnc2c(-c3nc4c(C)cc(OCCOC(=O)Nc5ccc(C#N)nc5)nc4s3)cc(C)cc2n1 [Example 197, 2-((2-(2-methoxy-7-methylquinoxalin-5-yl)-7-methylthiazolo[5,4-b]pyridin-5-yl)oxy)ethyl (6-cyanopyridin-3-yl)carbamate] | 1.3
COc1cc(C(O)C(F)(F)F)c2nc(-c3cc(C)cc4nc(OC)cnc34)sc2c1 (centres unmarked) [Example 174, 2,2,2-trifluoro-1-(6-methoxy-2-(2-methoxy-7-methylquinoxalin-5-yl)benzo[d]thiazol-4-yl)ethanol] | 3

Second part, the molecule after the results:

IC50 [nM] | SMILES
1.6 | COC(=O)c1ccc(NC(=O)O[C@H](C)[C@H](C)Oc2cc3sc(-c4cc(Cl)cc5nc(OC)cnc45)nc3cc2F)cn1 [Example 830, methyl 5-(((((2R,3S)-3-((2-(7-chloro-2-methoxyquinoxalin-5-yl)-5-fluorobenzo[d]thiazol-6-yl)oxy)butan-2-yl)oxy)carbonyl)amino)picolinate]
0.4 | COc1cnc2c(-c3nc4cc(F)c(O[C@@H](C)[C@@H](C)OC(=O)Nc5cnc(NCC(C)(C)O)nc5)cc4s3)cc(C)cc2n1 [Example 606, (2R,3S)-3-((5-fluoro-2-(2-methoxy-7-methylquinoxalin-5-yl)benzo[d]thiazol-6-yl)oxy)butan-2-yl (2-((2-hydroxy-2-methylpropyl)amino)pyrimidin-5-yl)carbamate]
2.2 | COc1cncc(NC(=O)O[C@H](C)[C@H](C)Oc2cc3sc(-c4cc(C)cc5nc(OC)cnc45)nc3cc2F)c1 [Example 420, (2R,3S)-3-((5-fluoro-2-(2-methoxy-7-methylquinoxalin-5-yl)benzo[d]thiazol-6-yl)oxy)butan-2-yl (5-methoxypyridin-3-yl)carbamate]
2.1 | COc1cnc2c(-c3nc4cc(F)c(OC[C@@H](C)OC(=O)Nc5ccc(C(=O)NCC(C)(C)O)nc5)cc4s3)cc(C)cc2n1 [Example 448, (R)-1-((5-fluoro-2-(2-methoxy-7-methylquinoxalin-5-yl)benzo[d]thiazol-6-yl)oxy)propan-2-yl (6-((2-hydroxy-2-methylpropyl)carbamoyl)pyridin-3-yl)carbamate]
0.5 | COc1cnc2c(-c3nc4cc(F)c(O[C@@H](C)[C@@H](C)OC(=O)Nc5ccc(CC(C)(C)O)nc5)cc4s3)cc(Cl)cc2n1 [Example 835, (2R,3S)-3-((2-(7-chloro-2-methoxyquinoxalin-5-yl)-5-fluorobenzo[d]thiazol-6-yl)oxy)butan-2-yl (6-(2-hydroxy-2-methylpropyl)pyridin-3-yl)carbamate]
7.4 | Cc1cc(-c2nc3cc(F)c(O[C@@H](C)[C@@H](C)OC(=O)Nc4cnc(C)nc4)cc3s2)c2ncc(OC(C)C)nc2c1 [Example 492, (2R,3S)-3-((5-fluoro-2-(2-isopropoxy-7-methylquinoxalin-5-yl)benzo[d]thiazol-6-yl)oxy) butan-2-yl (2-methylpyrimidin-5-yl)carbamate]
1.1 | CCOc1cnc2c(-c3nc4cc(F)c(O[C@@H](C)[C@@H](C)OC(=O)Nc5cnc(OCCO)nc5)cc4s3)cc(Cl)cc2c1 [Example 513, (2R,3S)-3-((2-(6-chloro-3-ethoxyquinolin-8-yl)-5-fluorobenzo[d]thiazol-6-yl)oxy)butan-2-yl (2-(2-hydroxyethoxy)pyrimidin-5-yl)carbamate]
7.4 | CCOc1cnc2c(-c3nc4cc(F)c(O[C@@H](C)[C@@H](C)OC(=O)Nc5cnc(C)nc5)cc4s3)cc(Cl)cc2c1 [Example 649, (2R,3S)-3-((2-(6-chloro-3-ethoxyquinolin-8-yl)-5-fluorobenzo[d]thiazol-6-yl)oxy)butan-2-yl (2-methylpyrimidin-5-yl)carbamate]
11 | COc1cnc2c(-c3nc4cc(F)c(O[C@@H](C)[C@@H](C)OC(=O)Nc5cnc(CO)nc5)nc4s3)cc(C)cc2c1 [Example 792, (2R,3S)-3-((6-fluoro-2-(3-methoxy-6-methylquinolin-8-yl)thiazolo[5,4-b]pyridin-5-yl)oxy)butan-2-yl (2-(hydroxymethyl)pyrimidin-5-yl)carbamate]
4 | COc1cnc2c(-c3nc4cc(F)c(O[C@@H](C)[C@@H](C)OC(=O)Nc5cnc(C(C)(C)O)nc5)cc4s3)cc(C)cc2n1 [Example 501, (2R,3S)-3-((5-fluoro-2-(2-methoxy-7-methylquinoxalin-5-yl)benzo[d]thiazol-6-yl)oxy)butan-2-yl (2-(2-hydroxypropan-2-yl)pyrimidin-5-yl)carbamate]
7 | CCCc1ncc(NC(=O)O[C@H](C)[C@H](C)Oc2cc3sc(-c4cc(C)cc5nc(OC)cnc45)nc3cc2F)cn1 [Example 414, (2R,3S)-3-((5-fluoro-2-(2-methoxy-7-methylquinoxalin-5-yl)benzo[d]thiazol-6-yl)oxy)butan-2-yl (2-propylpyrimidin-5-yl)carbamate]
1.3 | COc1cnc2c(-c3nc4cc(F)c(O[C@@H](C)[C@@H](C)OC(=O)Nc5cnc(C(N)=O)nc5)cc4s3)cc(C)cc2n1 [Example 454, (2R,3S)-3-((5-fluoro-2-(2-methoxy-7-methylquinoxalin-5-yl)benzo[d]thiazol-6-yl)oxy)butan-2-yl (2-carbamoylpyrimidin-5-yl)carbamate]
0.9 | COC(=O)c1ccc(NC(=O)O[C@H](C)[C@H](C)Oc2nc3sc(-c4cc(C)cc5nc(OC)cnc45)nc3cc2F)cn1 [Example 715, methyl 5-(((((2R,3S)-3-((6-fluoro-2-(2-methoxy-7-methylquinoxalin-5-yl)thiazolo[5,4-b]pyridin-5-yl)oxy)butan-2-yl)oxy)carbonyl)amino)picolinate]
